Where two headings read alike, the source gives them in different places.
Target: SARS-CoV-2 NSP3 macrodomain (Mac1) (Severe acute respiratory syndrome coronavirus 2, UniProt P0DTD1)
Experiment: biochemical
Type: binding
Details: for IC50: Dose-response, SARS CoV-2 macrodomain HTRF assay, read-out: IC50
[1] = Single dose, 200 μM, mean of three technical replicates

Structure (SMILES): CC1c2ccsc2CCN1C(=O)Cc1csc(-c2ccccc2)n1 (stereo not shown) [AVI-287]
- Average % competition: 0%

Structure (SMILES): O=C1COc2cc(C(=O)N3CC(C(=O)O)c4ccccc43)ccc2N1 (stereo not shown) [AVI-289]
- IC50: > 1000 µM
- Average % competition [1]: 21%

Structure (SMILES): Cc1nc2cc(NC(=O)C3CC(=O)Nc4ccccc43)ccc2o1 (stereo not shown) [AVI-292]
- Average % competition: 0%

Structure (SMILES): Cc1ncc(CN(C)C(=O)c2cccc(N)c2F)s1 [AVI-293]
- IC50: > 1000 µM
- Average % competition [1]: 14%

Structure (SMILES): CC1CN(C(=O)c2ccccc2S(C)(=O)=O)c2cccnc2O1 (stereo not shown) [AVI-294]
- Average % competition: 13%

Structure (SMILES): CCCC1CCCC1C(=O)N[C@H]1CCc2nc(N)sc2C1 (stereo partly shown) [AVI-298]
- Average % competition: <10%

Structure (SMILES): CC(=O)Nc1ccc(S(=O)(=O)CCCN2C(=O)CC(C)(C(C)C)C2=O)cc1 (stereo not shown) [AVI-299]
- Average % competition: 19%

Structure (SMILES): O=C(NCCCN1C(=O)NC2(CCCC2)C1=O)c1ccc(O)nc1 [AVI-300]
- Average % competition: 8%

Structure (SMILES): Cc1ccc2c(c1)C(=O)N(CCC(=O)Nc1cnc3c(c1)c(C)nn3C)C2=O [AVI-301]
- Average % competition: 16%

Structure (SMILES): Cc1nnc2n1CCN(C(=O)CN1C(=O)CCOc3ccccc31)C2 [AVI-302]
- Average % competition: 0%

Structure (SMILES): CC(OC(=O)c1ccc2nc(N)sc2c1)C(=O)N1CCCCCC1 (stereo not shown) [AVI-304]
- Average % competition: 0%

Structure (SMILES): CNC(=O)c1ccc(NC(=O)C2CC(=O)Nc3ccccc32)cc1 (stereo not shown) [AVI-305]
- Average % competition: 0%

Structure (SMILES): Cc1nc(-c2cccc(NC(=O)NCc3cccs3)c2)n[nH]1 [AVI-306]
- IC50: > 1000 µM
- Average % competition [1]: 20%

Structure (SMILES): O=C1CC(C(=O)Nc2nc3c(s2)CCCC3)c2ccccc2N1 (stereo not shown) [AVI-307]
- Average % competition: 0%

Structure (SMILES): c1ccn2c(Sc3ncnc4ccsc34)nnc2c1 [AVI-308]
- Average % competition: 0%

Structure (SMILES): CNS(=O)(=O)c1cc(C(=O)N2CCOc3ccccc32)n(C)c1 [AVI-309]
- Average % competition: 0%

Structure (SMILES): Cc1ccc(O)c(C(=O)c2cnn3c(N)nnc3c2)c1 [AVI-310]
- Average % competition: 0%

Structure (SMILES): Nc1ccc(F)c(C(=O)NCc2cnc(O)nc2O)c1F [AVI-312]
- Average % competition: <10%

Structure (SMILES): O=C(O)C1CN(C(=O)c2cccc3[nH]ccc23)c2ccccc21 (stereo not shown) [AVI-314]
- IC50: > 1000 µM
- Average % competition [1]: 32%

Structure (SMILES): CC(=O)Nc1ccc(NC(=O)CSc2nnnn2C2CCCC2)cc1 [AVI-315]
- Average % competition: 0%

Structure (SMILES): O=C(c1cc(C2CCCCC2)[nH]n1)N1CCCC(O)(C(F)(F)F)CC1 (stereo not shown) [AVI-318]
- Average % competition: 13%

Structure (SMILES): O=C(O)C1CN(C(=O)c2ccc3[nH]nnc3c2)c2ccccc21 (stereo not shown) [AVI-319]
- Average % competition: 25%

Structure (SMILES): Cc1ccc(C)c(CN2C(=O)NC(C)(Cc3ccc4c(c3)OCO4)C2=O)c1 (stereo not shown) [AVI-320]
- Average % competition: 18%

Structure (SMILES): Cc1noc(NCc2cc3ccccc3nc2O)n1 [AVI-322]
- Average % competition: 0%

Structure (SMILES): O=C(O)C1CN(C(=O)c2ccc3c(c2)OCCO3)CCO1 (stereo not shown) [AVI-323]
- Average % competition: 7%

Structure (SMILES): Nc1ncnc(N2CCC(C(F)(F)F)C3(CCC3)C2)c1Cl (stereo not shown) [AVI-324]
- Average % competition: <10%

Structure (SMILES): CCOc1ccc(-c2nc(CC(=O)N3CCn4cccc4C3C)cs2)cc1 (stereo not shown) [AVI-325]
- Average % competition: 0%

Structure (SMILES): O=C(O)C1CCc2nnc(-c3ccc(F)cc3)n2C1 (stereo not shown) [AVI-326]
- Average % competition: 15%

Structure (SMILES): Cc1nn(C)c2sc(C(=O)N3CC(C(=O)O)c4ccccc43)cc12 (stereo not shown) [AVI-327]
- Average % competition: 0%

Structure (SMILES): NC(=O)N1CCC[C@H]1C(=O)Nc1ccc2ncnn2c1 [AVI-330]
- Average % competition: 14%

Structure (SMILES): Nc1ncnc2sc3c(c12)CCN(C(=O)[C@H]1CC=CCC1)C3 [AVI-331]
- Average % competition: <10%

Structure (SMILES): N#Cc1cnc(CSc2nc(-c3ccccc3)co2)nc1N [AVI-332]
- Average % competition: <10%

Structure (SMILES): O=C(O)c1ccc2c(c1)C(NC(=O)C1CCn3ncnc3C1)CCC2 (stereo not shown) [AVI-333]
- Average % competition: 21%

Structure (SMILES): CC1CCCC1OC(=O)Cn1cnc2c1c(=O)n(C)c(=O)n2C (stereo not shown) [AVI-335]
- Average % competition: <10%

Structure (SMILES): Cc1ccc(N2CCN(c3ncnc(-c4ccccc4)n3)CC2=O)cc1 [AVI-336]
- Average % competition: <10%

Structure (SMILES): CC(C(=O)NCc1c(C(=O)O)[nH]c2ccccc12)n1cncn1 (stereo not shown) [AVI-337]
- Average % competition: 14%
